Laboratory results published in patent US8187822B2, “Methods to identify modulators” (Givaudan S.A., priority 2007, dated 2012).
Each block holds one molecule with its values, some of them ahead of it.

What was measured:
TAS2R10 = biological target: T1, TAS2R10 (Homo sapiens, UniProt Q9NYW0); test: Fluo-4 calcium assay, HEK293T cells stably expressing Gα16-gustducin44 and TAS2R10; assay type: cell-based
T1 construct: The full length gene of human TAS2R44 was amplified by polymerase chain reaction (PCR) using gene-specific primers that span the entire coding region; RSS tag (first 45 amino acids of rat somatostatin receptor subtype 3) (N); expressed in transfected cells
T1 sequence (Q9NYW0 1-307): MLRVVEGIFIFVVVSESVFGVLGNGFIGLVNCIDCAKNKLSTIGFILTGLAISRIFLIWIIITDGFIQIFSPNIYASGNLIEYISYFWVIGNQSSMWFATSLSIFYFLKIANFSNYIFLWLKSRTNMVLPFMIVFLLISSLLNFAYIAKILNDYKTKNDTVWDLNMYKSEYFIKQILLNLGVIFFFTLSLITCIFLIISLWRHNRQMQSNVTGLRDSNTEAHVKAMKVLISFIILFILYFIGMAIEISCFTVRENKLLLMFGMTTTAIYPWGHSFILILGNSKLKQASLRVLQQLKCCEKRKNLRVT

[1] = system: bitter-sensitive panelists; test: Sensory evaluation of bitter blocking in sucralose solution (forced choice); assay type: in vivo, human; settings: for perceived bitterness of sucralose, in words: 13 ppm in 3 mM sucralose solution
Protocol: The bitter blocking capability of test cpd A (13 ppm) in sucralose (3 mM) solution was evaluated. Twenty ml of each solution (sucralose or sucralose with test cpd A) was presented in random order to 15 bitter-sensitive panelists. In two replications, panelists were asked to select the solution they perceived as more bitter. A beta-binomial analysis was calculated from the forced-choice data to correct for overdispersion. Because panelists evaluated bitterness over 2 replications, the data was subjected to a beta-binomial d′ analysis to determine whether over-dispersion occurred. Not accounting for over-dispersion has the potential to underestimate the significance level at which a test is conducted and therefore lead to false-positive results. The analysis refuted overdispersion (gamma=0.00; p=0.109) and no adjustments were necessary.

TAS2R16 = biological target: T2, TAS2R16 (Homo sapiens, UniProt Q9NYV7); test: Fluo-4 calcium assay, cells expressing TAS2R16 (control of antagonist specificity); assay type: cell-based; settings: for P-β-G + test cpd A ΔF/F0: 25 μM test cpd A
T2 construct: The full length gene of human TAS2R44 was amplified by polymerase chain reaction (PCR) using gene-specific primers that span the entire coding region; RSS tag (first 45 amino acids of rat somatostatin receptor subtype 3) (N); expressed in transfected cells; host or cells: HEK293T cells expressing Gα16-gustducin44
T2 sequence (Q9NYV7 1-291): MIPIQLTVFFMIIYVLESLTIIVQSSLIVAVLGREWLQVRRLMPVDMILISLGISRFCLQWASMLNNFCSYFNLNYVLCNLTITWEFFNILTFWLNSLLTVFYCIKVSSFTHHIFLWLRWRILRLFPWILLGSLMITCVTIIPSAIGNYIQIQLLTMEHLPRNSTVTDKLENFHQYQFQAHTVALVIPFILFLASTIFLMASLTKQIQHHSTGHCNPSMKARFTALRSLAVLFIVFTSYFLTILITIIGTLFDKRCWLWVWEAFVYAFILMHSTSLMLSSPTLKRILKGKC
Protocol: At day 0, the HEK293T cell line expressing Gα16-gustducin44 and a TAS2R bitter taste receptor formed as described in examples 2b or 2c was seeded in antibiotic-free growth medium (standard DMEM with 10% (v/v) heat-inactivated fetal bovine serum, 2 mM L-glutamine[…]) into black wall/clear bottom 96-well plates, coated with poly(ethylenimine) (0.005% v/v) at a concentration of 15,000 cells per well and incubated for 48 hours in humidified atmosphere (37° C., 5% CO2).
At the time of the assay, the growth medium was discarded and the cells were in humidified atmosphere (37° C., 5% CO2) for 1 hour with 50 μl of loading buffer consisting of 1.5 μM Fluo-4 AM and […] probenicid (Sigma-Aldrich, St. Louis, Mo., US) in DMEM.
Afterwards, the 96-well plate was washed 5 times with 100 μl of assay buffer (130 mM NaCl, 5 mM KCl, 10 mM HEPES, 2 mM CaCl2, and 5 mM dextrose, pH 7.4) per well, using an automated plate washer (BioTek). The plate was further incubated for 30 minutes at room temperature in the dark to allow for complete de-esterification of the Fluo-4. Afterwards the plate was washed 5 times with 100 μl of assay buffer per well, and reconstituted with 100 μl of assay buffer per well.
For assay reading, the plate was placed in a Fluorometric Imaging Plate Reader (FLIPR) (FLIPR-TETRA™, Molecular Devices, Sunnyvale, Calif., US), and receptor activation was initiated by addition of 100 μl of a twofold concentrated agonist stock solution (to give the desired agonist end concentration when added to the 100 microliter assay buffer volume), which was prepared in assay buffer.
Fluorescence was continuously monitored for 20 seconds to give a signal baseline (averaged to give F0) prior to agonist addition and for 120 seconds after agonist addition. The change in signal divided by F0 gives ΔF/F0 indicated in the table, with ΔF being the maximum signal occurring within the 120 seconds minus the minimum signal (occurring within the 120 seconds after agonist addition.
All data was collected from at least two independent experiments each carried out in triplicate.
A concentration-response analysis was performed and EC50 values were calculated by nonlinear regression using the function f(x)=(a−d)/(1+(x/C)^nh)+d; with a=minimum signal, d=maximum signal, nh=hill coefficient, C=EC50, and x=agonist concentration. EC50 is the molar concentration of an agonist which produces 50% of the maximum possible effective response for that agonist.
The obtained calcium signals were corrected for the response of cells expressing only the G Protein α subunit (Gα16-gustducin44) and normalized to the fluorescence of cells prior to the stimulus using ΔF/F0 (Fmax−Fmin/F0).
All cells were HEK293T cells stably expressing Gα16-gustducin44, or expressing Gα16-gustducin44 and a TAS2R receptor (TAS2R44, TAS2R16).
The method was carried out as described in example 3 subject to the following modifications: The samples were tested with and without test compound A (test cpd A) and the signals were compared. The test compound was dissolved in dimethylsulfoxide (DMSO), and a negative control with equivalent DMSO concentration (0.02%) was performed accordingly to exclude a potential inhibitory effect of the solvent.
As a control of antagonist specificity, the response of an unrelated bitter taste receptor (TAS2R16) to its agonist phenyl-β-glucopyranosides is also detected (see results in table 8 herein below).

TAS2R10 ΔF/F0 (TAS2R10; sucralose 0.3906 mM): 0.050
TAS2R10 ΔF/F0 (TAS2R10; sucralose 0.7813 mM): 0.050
TAS2R10 ΔF/F0 (TAS2R10; sucralose 1.5625 mM): 0.047
TAS2R10 ΔF/F0 (TAS2R10; sucralose 3.1250 mM): 0.053
TAS2R10 ΔF/F0 (TAS2R10; sucralose 6.2500 mM): 0.053
TAS2R10 ΔF/F0 (TAS2R10; sucralose 12.5000 mM): 0.059
TAS2R10 ΔF/F0 (TAS2R10; sucralose 25.0000 mM): 0.087
TAS2R10 ΔF/F0 (TAS2R10; sucralose 50.0000 mM): 0.212
TAS2R10 ΔF/F0 (TAS2R10; sucralose 100.0000 mM): 0.437
SMILES: OC[C@H]1O[C@H](O[C@]2(CCl)O[C@H](CCl)[C@@H](O)[C@@H]2O)[C@H](O)[C@@H](O)[C@H]1Cl [Sucralose, sucralose]
calcium signaling in TAS2R10 cells, in words (TAS2R10): significant concentration-dependent increase in calcium signaling

P-β-G + test cpd A ΔF/F0 (TAS2R16; P-β-G 0.0391 mM): −0.013
P-β-G + test cpd A ΔF/F0 (TAS2R16; P-β-G 0.0781 mM): 0.108
P-β-G + test cpd A ΔF/F0 (TAS2R16; P-β-G 0.1563 mM): 0.702
P-β-G + test cpd A ΔF/F0 (TAS2R16; P-β-G 0.3125 mM): 1.548
P-β-G + test cpd A ΔF/F0 (TAS2R16; P-β-G 0.6250 mM): 2.139
P-β-G + test cpd A ΔF/F0 (TAS2R16; P-β-G 1.2500 mM): 2.367
P-β-G + test cpd A ΔF/F0 (TAS2R16; P-β-G 2.5000 mM): 2.480
P-β-G + test cpd A ΔF/F0 (TAS2R16; P-β-G 5.0000 mM): 2.646
P-β-G + test cpd A ΔF/F0 (TAS2R16; P-β-G 10.0000 mM): 2.830
effect on the response of TAS2R16 to phenyl-β-glucopyranoside, in words (TAS2R16; test compound at 25 μM): does not block the response
SMILES: CC1=CCC(C/C=C/C(=O)O)C1(C)C (stereo not drawn) [test cpd A, (E)-4-(2,2,3-trimethylcyclopent-3-enyl)but-2-enoic acid]
perceived bitterness of sucralose, in words [1]: reduced the perceived bitterness
perceived bitterness of sucralose, in words ([1]; listed as (E)-4-(2,2,3-trimethylcyclopent-3-enyl)but-2-enoic acid): significantly reduce the bitter aftertaste of sucralose
evaluations selecting the solution with test compound as less bitter than 3 mM sucralose solution ([1]; 13 ppm in 3 mM sucralose, 15 panelists, 2 replications, p<0.05): 22 of 30
d′ ([1]; 13 ppm in 3 mM sucralose, forced choice): 0.88±0.12
